The target in one assay is T1, human ACC1 (Homo sapiens, UniProt Q13085).
T1 construct: His6 (from vector pFAST-BacHTc); made in house; host or cells: SF-9 insect cells, recombinant baculovirus BAC-ACC1
Briefly: ACC1 inhibitory activity (malachite green). The class given is biochemical. As to conditions: test compound 10 μM; for inhibition at 10 µM: read-out: ACC1 10 μM inhibitory rate (%). On the procedure: The ACC1 inhibitory action of the compound of the present invention was evaluated by the following method.
(1) Cloning of Human ACC1 Gene and Preparation of Recombinant Baculovirus
Human ACC1 gene was cloned by PCR using a human liver cDNA library (Clontech) as a template and Primer 1 and Primer 2 shown below. Primer 1 and Primer 2 were prepared by adding SalI, NotI restriction enzyme recognition sequences based on the information of the base sequence of human ACC1 gene (Genbank Accession U19822).
PCR was performed using Pyrobest DNA polymerase (TAKARA BIO INC.). The obtained PCR product was cloned to pT7 Blue vector (Novagen) and, after confirmation of the base sequence, digested with restriction enzymes SalI and NotI. The obtained DNA fragment was inserted into pFAST-BacHTc (Invitrogen) digested with restriction enzymes SalI and NotI to give expression plasmid ACC1/pFAST-BacHTc.
Using the expression plasmid ACC1/pFAST-BacHTc and BAC-TO-BAC Baculovirus Expression System (Invitrogen), virus stock BAC-ACC1 of recombinant Baculovirus was prepared.
(2) Preparation of ACC1 Protein
SF-9 cells (Invitrogen) were inoculated to a medium (1 L) for insect cells (Sf-900IISFM medium (Invitrogen) containing 10% fetal bovine serum (Trace), 50 mg/L Gentamicin (Invitrogen), 0.1% Pluronic F-68 (Invitrogen)) at 1×10^6 cells/mL, and cultured with shaking in 2 L meyer at 27° C., 100 rpm.
After 24 hr of the culture, 10 mL of recombinant Baculovirus BAC-ACC1 was added, and the cells were cultured for 3 days. The culture medium was centrifuged at 1000×g for 5 min to give virus-infected cells. The cells were washed with phosphate buffered saline (Invitrogen) and centrifuged under the same conditions. The obtained cells were cryopreserved at −80° C.
The cryopreserved cells were thawed in ice and suspended in 100 mL of 25 mM HEPES buffer (pH 7.5) containing 10% Glycerol, 0.13 M NaCl, 1 mM EDTA, 25 mM Sodium […] and 1 mM Sodium Orthovanadate, and supplemented with Complete Protease Inhibitor (Nippon Boehringer Ingelheim Co., Ltd.). The obtained suspension was homogenized three times in a polytron homogenizer (Kinematica) at 20,000 rpm for 30 sec. The obtained cell disruption solution was clarified by centrifugation at 185700×g for 50 min, and filtered through a 0.45 μm filter. The filtrate was passed through a column packed with 12 ml of Ni-NTA Super Flow Gel (QUIAGEN) at a flow rate of about 5 mL/min. The column was washed with buffer A (50 mM HEPES (pH 7.5) containing 0.3 M NaCl), further washed with buffer A containing 20 mM Imidazole, and eluted with buffer A containing 100 mM Imidazole. The eluate was concentrated with Vivaspin 20 (Vivascience) with a molecular weight cut off of 30K. The obtained concentrate was dialyzed against Sephadex G-25 (Amersham Biosciences, 358 mL) equilibrated with 50 mM HEPES (pH 7.5) containing 10 mM MgCl2, 2 mM Dithiothreitol, 10 mM Tripotassium Citrate and 0.3 M NaCl. The inner dialysate was concentrated with Vivaspin 20 (Vivascience) with molecular weight cut off of 30K, and concentrate was filtered through a 0.22 μm filter to give ACC1. The obtained ACC1 was cryopreserved at −80° C.
(3) Measurement of ACC1 Inhibitory Activity
ACC1 (0.93 mg/ml) obtained in the above-mentioned (2) was diluted with an enzyme reaction buffer (50 mM HEPES (pH 7.5), 10 mM MgCl2, 10 mM Tripotassium Citrate, 2 mM Dithiothreitol, 0.75 mg/ml Fatty acid free BSA) to a concentration of 8 μg/ml, and the mixture was added to each well of a 384 well assay plate (Nunc 265196) by 10 μl. A test compound was dissolved in dimethyl sulfoxide (DMSO) and the mixture was diluted with an enzyme reaction buffer and the resulting solution (5 μl) was added to each well. The mixture was incubated at 30° C. for 60 min. Then, a substrate solution (50 mM KHCO3, 200 μM ATP, 200 μM Acetyl-CoA, 5 μl) was added to each well, and the mixture was reacted at 30° C. for 20 min (test compound addition group). […]

For a further assay, the target named is T2, human ACC2 (Nd) (Homo sapiens, UniProt O00763).
T2 construct: His6 (from vector pFAST-BacHTa); made in house; host or cells: SF-9 insect cells, recombinant baculovirus BAC-ACC2 (Nd)
Briefly: ACC2 inhibitory activity (malachite green). It is filed as biochemical. The conditions noted are these: test compound 10 μM; for inhibition at 10 µM: read-out: ACC2 10 μM inhibitory rate (%). The procedure:
The ACC2 inhibitory action of the compound of the present invention was evaluated by the following method.
(1) Cloning of Human ACC2 Gene and Preparation of Recombinant Baculovirus
Human ACC2 gene was cloned by PCR using a human skeletal muscle cDNA library (Clontech) as a template and Primer 1 and Primer 2 shown below. Primer 1 and Primer 2 were prepared by adding SalI, XbaI restriction enzyme recognition sequences based on the information of the base sequence of human ACC2 gene (Genbank Accession U89344).
PCR was performed using Pyrobest DNA polymerase (TAKARA BIO INC.). The obtained PCR product was cloned to pT7 Blue vector (Novagen) and, after confirmation of the base sequence, digested with restriction enzymes SalI and XbaI. The obtained DNA fragment was inserted into pFAST-BacHTa (Invitrogen) digested with restriction enzymes SalI and XbaI to give expression plasmid ACC2/pFAST-BacHTa.
A plasmid for expression of ACC2 without a mitochondrial targeting sequence was prepared by PCR using the expression plasmid as a template, and Primer 3 (SalI restriction enzyme recognition sequence was added) and Primer 4 prepared by reference to the information of human ACC2 gene base sequence (Genbank Accession U89344).
PCR was performed using Pyrobest-DNA polymerase (TAKARA BIO INC.). The obtained PCR product was cloned to pT7 Blue vector (Novagen) and, after confirmation of the base sequence, digested with restriction enzymes SalI and AflII. The obtained DNA fragment was inserted into ACC2/pFAST-BacHTa digested with restriction enzymes SalI and AflII to give expression plasmid ACC2mito7/pFAST-BacHTa.
Using the expression plasmid ACC2mito7/pFAST-BacHTa and BAC-TO-BAC Baculovirus Expression System (Invitrogen), virus stock BAC-ACC2 of recombinant Baculovirus (N terminal deleted (hereinafter Nd)) was prepared.
(2) Preparation of ACC2 (Nd) Protein
SF-9 cells (Invitrogen) were inoculated to a medium (2 L) for insect cells (Sf-900IISFM medium (Invitrogen) containing 10% fetal bovine serum (Trace), 50 mg/L Gentamicin (Invitrogen), 0.1% Pluronic F-68 (Invitrogen)) at 0.5×10^6 cells/mL, and cultured with shaking in Wave Bioreactor (Wave) at 27° C., 20 rpm, rocking angle 6°, oxygen concentration 30%.
On day 4 of the culture, 3 L of the medium for insect cells was added, the rocking angle was set to 8°, and the cells were cultured. On day 5 of the culture, 100 ml of recombinant Baculovirus BAC-ACC2 (Nd) was added, 5 L of the medium for insect cells was further added, the rocking angle was set to 11°, and the cells were cultured for 3 days. The culture medium was centrifuged at 1000×g for 10 min to give virus-infected cells. The cells were washed with phosphate buffered saline (Invitrogen) and centrifuged under the same conditions. The obtained cells were cryopreserved at −80° C.
The cryopreserved cells were thawed in ice and suspended in 900 ml of 25 mM HEPES buffer (pH 7.5) containing 10% Glycerol, 0.13 M NaCl, 1 mM EDTA, 25 mM Sodium β-Glycerophosphate and 1 mM Sodium Orthovanadate, and supplemented with Complete Protease Inhibitor (Nippon Boehringer Ingelheim Co., Ltd.). The obtained suspension was homogenized three times in a polytron homogenizer (Kinematica) at 20,000 rpm for 30 sec. The obtained cell disruption solution was clarified by centrifugation at 31000×g for 60 min, and filtered through a 0.45 μm filter. The filtrate was passed through a column packed with 60 mL of Ni-NTA Super Flow Gel (QUIAGEN) at a flow rate of about 5 mL/min. The column was washed with buffer A (50 mM HEPES (pH 7.5) containing 0.3 M NaCl), further washed with buffer A containing 20 mM Imidazole, and eluted with buffer A containing 100 mM Imidazole. The eluate was concentrated with Vivaspin 20 (Vivascience) with a molecular weight cut off of 30K. The obtained concentrate was dialyzed against 50 mM HEPES (pH 7.5) containing 10 mM MgCl2, 2 mM Dithiothreitol, 10 mM Tripotassium Citrate and 0.3 M NaCl. The inner dialysate was filtered through a 0.22 μm filter to give ACC2 (Nd). […]

Structures are written as SMILES.

T2 sequence (O00763 117-2458 limits assumed): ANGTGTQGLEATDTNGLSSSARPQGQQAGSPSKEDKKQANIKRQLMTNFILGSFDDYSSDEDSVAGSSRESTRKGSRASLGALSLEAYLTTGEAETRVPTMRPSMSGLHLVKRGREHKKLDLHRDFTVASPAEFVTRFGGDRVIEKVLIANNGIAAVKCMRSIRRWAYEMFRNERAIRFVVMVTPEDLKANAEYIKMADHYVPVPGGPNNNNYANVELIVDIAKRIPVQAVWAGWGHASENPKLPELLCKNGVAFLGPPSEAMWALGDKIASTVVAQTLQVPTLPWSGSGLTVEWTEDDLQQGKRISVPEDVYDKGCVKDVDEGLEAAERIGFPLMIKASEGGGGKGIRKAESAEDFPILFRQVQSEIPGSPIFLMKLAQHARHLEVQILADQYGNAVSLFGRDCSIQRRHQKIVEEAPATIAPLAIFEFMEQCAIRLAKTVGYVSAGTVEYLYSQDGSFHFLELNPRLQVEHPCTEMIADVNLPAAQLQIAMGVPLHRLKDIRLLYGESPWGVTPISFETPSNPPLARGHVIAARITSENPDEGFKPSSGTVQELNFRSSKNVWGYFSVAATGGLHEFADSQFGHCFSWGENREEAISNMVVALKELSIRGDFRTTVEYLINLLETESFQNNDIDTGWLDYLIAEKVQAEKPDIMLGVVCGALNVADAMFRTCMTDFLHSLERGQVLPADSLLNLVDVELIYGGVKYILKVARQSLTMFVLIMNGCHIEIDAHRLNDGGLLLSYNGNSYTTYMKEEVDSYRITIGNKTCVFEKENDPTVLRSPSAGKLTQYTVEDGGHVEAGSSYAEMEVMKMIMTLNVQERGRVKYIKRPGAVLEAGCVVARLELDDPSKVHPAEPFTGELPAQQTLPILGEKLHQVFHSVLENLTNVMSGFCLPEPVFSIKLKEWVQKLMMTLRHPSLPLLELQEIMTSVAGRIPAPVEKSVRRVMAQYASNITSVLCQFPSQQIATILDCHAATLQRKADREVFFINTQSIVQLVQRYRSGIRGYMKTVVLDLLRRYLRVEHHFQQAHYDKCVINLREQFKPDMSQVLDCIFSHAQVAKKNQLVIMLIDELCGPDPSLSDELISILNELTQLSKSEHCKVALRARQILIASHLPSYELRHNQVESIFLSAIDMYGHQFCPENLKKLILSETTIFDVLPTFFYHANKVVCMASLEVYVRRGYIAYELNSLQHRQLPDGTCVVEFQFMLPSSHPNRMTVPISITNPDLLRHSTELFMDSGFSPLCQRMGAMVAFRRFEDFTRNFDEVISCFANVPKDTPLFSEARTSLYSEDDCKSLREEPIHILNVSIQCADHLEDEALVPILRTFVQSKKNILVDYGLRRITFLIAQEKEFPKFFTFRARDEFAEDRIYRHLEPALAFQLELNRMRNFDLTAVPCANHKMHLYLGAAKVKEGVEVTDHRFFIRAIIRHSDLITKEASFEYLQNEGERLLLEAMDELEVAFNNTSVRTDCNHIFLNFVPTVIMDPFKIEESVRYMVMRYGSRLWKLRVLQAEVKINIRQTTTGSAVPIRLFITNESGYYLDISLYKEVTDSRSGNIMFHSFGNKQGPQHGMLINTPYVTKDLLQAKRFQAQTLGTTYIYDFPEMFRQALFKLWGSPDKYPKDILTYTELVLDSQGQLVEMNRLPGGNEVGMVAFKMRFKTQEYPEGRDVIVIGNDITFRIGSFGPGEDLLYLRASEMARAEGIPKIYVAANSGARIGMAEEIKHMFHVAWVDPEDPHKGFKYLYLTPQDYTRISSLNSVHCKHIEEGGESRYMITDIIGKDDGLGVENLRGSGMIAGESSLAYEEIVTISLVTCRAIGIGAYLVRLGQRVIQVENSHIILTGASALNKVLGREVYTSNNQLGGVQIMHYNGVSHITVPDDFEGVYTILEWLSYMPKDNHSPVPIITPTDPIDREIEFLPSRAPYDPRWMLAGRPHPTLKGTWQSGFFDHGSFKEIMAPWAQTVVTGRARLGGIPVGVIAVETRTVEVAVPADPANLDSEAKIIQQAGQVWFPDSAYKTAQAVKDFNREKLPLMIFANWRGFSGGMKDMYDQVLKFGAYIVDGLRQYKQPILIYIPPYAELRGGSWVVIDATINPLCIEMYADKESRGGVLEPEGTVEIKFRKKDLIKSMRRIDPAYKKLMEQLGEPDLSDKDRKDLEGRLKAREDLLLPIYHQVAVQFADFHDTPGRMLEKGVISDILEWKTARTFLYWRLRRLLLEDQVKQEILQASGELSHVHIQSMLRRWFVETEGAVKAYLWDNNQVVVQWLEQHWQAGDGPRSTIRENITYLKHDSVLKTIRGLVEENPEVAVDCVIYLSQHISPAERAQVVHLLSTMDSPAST

As to `CC(=O)NC(C)c1cc2ccc(CCc3ccc4c(c3)CCO4)cc2o1` (stereo not drawn) [Example 94, N-(1-{6-[2-(2,3-dihydro-1-benzofuran-5-yl)ethyl]-1-benzofuran-2-yl}ethyl)acetamide], the results for the inhibition at 10 µM at human ACC1 and on human ACC2 (Nd) were 19% and 80%, respectively.

In the case of `CC(=O)N[C@@H](C)[C@@H]1Cc2ccc(C#Cc3ccc(OCC4CC4)cc3)cc2O1.CC(=O)N[C@H](C)[C@H]1Cc2ccc(C#Cc3ccc(OCC4CC4)cc3)cc2O1` (mixture of isomers) [Example 129 (retention time longer), N-{(1R)-1-[(2R)-6-{[4-(cyclopropylmethoxy)phenyl]ethynyl}-2,3-dihydro-1-benzofuran-2-yl]ethyl}acetamide and N-{(1S)-1-[(2S)-6-{[4-(cyclopropylmethoxy)phenyl]ethynyl}-2,3-dihydro-1-benzofuran-2-yl]ethyl}acetamide], the “ACC1 10 μM inhibitory rate (%)” value at human ACC1 is listed as 51%. For the same molecule, the “ACC2 10 μM inhibitory rate (%)” value on human ACC2 (Nd) came to 86%.

As for `CC(=O)NC(C)C1Cc2cc(OCc3ccc(OCC4CC4)cc3F)ccc2O1` (stereo not drawn) [Example 141 (retention time shorter), N-[1-(5-{[4-(cyclopropylmethoxy)-2-fluorobenzyl]oxy}-2,3-dihydro-1-benzofuran-2-yl)ethyl]acetamide], the “ACC1 10 μM inhibitory rate (%)” value at human ACC1 stood at 41%. In addition, the “ACC2 10 μM inhibitory rate (%)” value at human ACC2 (Nd) was found to be 95%.

In the case of `CC(=O)NC(C)C1Cc2cc(OCc3ccc(OCC4CC4)cc3F)ccc2O1` (stereo not drawn) [Example 140, N-[1-(5-{[4-(cyclopropylmethoxy)-2-fluorobenzyl]oxy}-2,3-dihydro-1-benzofuran-2-yl)ethyl]acetamide], the “ACC1 10 μM inhibitory rate (%)” value at human ACC1 amounted to 20%. Further, the “ACC2 10 μM inhibitory rate (%)” value on human ACC2 (Nd) was determined as 66%.

For `CCOc1ccc(COc2ccc3oc(C(C)NC(C)=O)cc3c2)c(Cl)c1` (stereo not drawn) [Example 28, N-(1-{5-[(2-chloro-4-ethoxybenzyl)oxy]-1-benzofuran-2-yl}ethyl)acetamide], the inhibition at 10 µM was determined as 19% on human ACC1 and 81% at human ACC2 (Nd).

As to `CC(Nc1ccon1)c1cc2ccc(CCc3ccc(OCC4CC4)cc3)cc2o1` (stereo not drawn) [Example 176, N-[1-(6-{2-[4-(cyclopropylmethoxy)phenyl]ethyl}-1-benzofuran-2-yl)ethyl]isoxazol-3-amine], the inhibition at 10 µM at human ACC1 turned out to be 31%; on human ACC2 (Nd) it was 88%.

For the molecule `CCOc1ccc(CCc2ccc3cc(C(C)NC(C)=O)oc3c2)cc1` (stereo not drawn) [Example 20, N-(1-{6-[2-(4-ethoxyphenyl)ethyl]-1-benzofuran-2-yl}ethyl)acetamide], at human ACC1, the “ACC1 10 μM inhibitory rate (%)” value amounted to 23%. Besides, the “ACC2 10 μM inhibitory rate (%)” value on human ACC2 (Nd) stood at 83%.

In the case of `CC(=O)N[C@@H](C)[C@@H]1Cc2ccc(OCc3ccc(OCC4CC4)cc3F)cc2O1` [Example 145, N-{(1S)-1-[(2S)-6-{[4-(cyclopropylmethoxy)-2-fluorobenzyl]oxy}-2,3-dihydro-1-benzofuran-2-yl]ethyl}acetamide], the inhibition at 10 µM at human ACC1 is 42%; at human ACC2 (Nd) it was 88%.

For the molecule `CCOc1ccc(/C=C/c2ccc3cc(C(C)NC(C)=O)oc3c2)cc1` (stereo not drawn) [Example 125, N-(1-{6-[(E)-2-(4-ethoxyphenyl)ethenyl]-1-benzofuran-2-yl}ethyl)acetamide], the results for the inhibition at 10 µM at human ACC1 and on human ACC2 (Nd) were 33% and 83%, respectively.

For `CCOc1ccc(CCc2ccc3cc(C(C)NC(C)=O)oc3c2)cc1` (stereo not drawn) [Example 190 (retention time longer), N-(1-{6-[2-(4-ethoxyphenyl)ethyl]-1-benzofuran-2-yl}ethyl)acetamide], the inhibition at 10 µM on human ACC1 worked out at 29%; at human ACC2 (Nd), 79%.

Regarding `CCOc1ccc(CCc2cnc3cc([C@H](C)NC(C)=O)oc3c2)cc1` [Example 107, N-[(1S)-1-{6-[2-(4-ethoxyphenyl)ethyl]furo[3,2-b]pyridin-2-yl}ethyl]acetamide], the results for the inhibition at 10 µM on human ACC1 and on human ACC2 (Nd) were 12% and 70%, respectively.

Consider `CC(=O)NC(C)c1cc2ccc(CCc3ccc(OCC4CC4)cc3)cc2o1` (stereo not drawn) [Example 150, N-[1-(6-{2-[4-(cyclopropylmethoxy)phenyl]ethyl}-1-benzofuran-2-yl)ethyl]acetamide], for which the values for the inhibition at 10 µM at human ACC1 and on human ACC2 (Nd) were 27% and 81%, respectively.

Source of the values: patent US8501804B2, “Bicyclic compound” (Takeda Pharmaceutical Company Limited, priority 2008, dated 2013).
